Test results reported in ChEMBL document CHEMBL1828497, “Novel indole and azaindole (pyrrolopyridine) cannabinoid (CB) receptor agonists: design, synthesis, structure-activity relationships, physicochemical properties and biological activity” (Eur J Med Chem, 2011).
≈ marks a conversion by molar mass, not a printed value.

Legend:
Cannabinoid receptor 2 [1] = biological target: T1, Cannabinoid receptor 2 (Homo sapiens, UniProt P34972); assay: Displacement of [3H]-CP55940 from human CB2 receptor expressed in CHO cells by liquid scintillation counting; type: cell-based
T1 sequence (P34972 whole entry): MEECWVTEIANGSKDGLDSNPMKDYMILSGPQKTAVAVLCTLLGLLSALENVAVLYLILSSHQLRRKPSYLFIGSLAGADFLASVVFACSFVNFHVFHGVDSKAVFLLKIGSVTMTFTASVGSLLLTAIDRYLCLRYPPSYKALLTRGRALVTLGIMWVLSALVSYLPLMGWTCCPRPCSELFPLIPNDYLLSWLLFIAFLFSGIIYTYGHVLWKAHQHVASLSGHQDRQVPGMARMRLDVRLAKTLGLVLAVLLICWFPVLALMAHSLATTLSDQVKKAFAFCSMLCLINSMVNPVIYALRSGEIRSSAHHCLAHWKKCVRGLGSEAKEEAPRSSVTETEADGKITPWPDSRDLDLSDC

Cannabinoid receptor 1 [2] = biological target: T2, Cannabinoid receptor 1 (Homo sapiens, UniProt P21554); assay: Displacement of [3H]-CP55940 from human CB1 receptor expressed in CHO cells by liquid scintillation counting; type: cell-based
T2 sequence (P21554 whole entry): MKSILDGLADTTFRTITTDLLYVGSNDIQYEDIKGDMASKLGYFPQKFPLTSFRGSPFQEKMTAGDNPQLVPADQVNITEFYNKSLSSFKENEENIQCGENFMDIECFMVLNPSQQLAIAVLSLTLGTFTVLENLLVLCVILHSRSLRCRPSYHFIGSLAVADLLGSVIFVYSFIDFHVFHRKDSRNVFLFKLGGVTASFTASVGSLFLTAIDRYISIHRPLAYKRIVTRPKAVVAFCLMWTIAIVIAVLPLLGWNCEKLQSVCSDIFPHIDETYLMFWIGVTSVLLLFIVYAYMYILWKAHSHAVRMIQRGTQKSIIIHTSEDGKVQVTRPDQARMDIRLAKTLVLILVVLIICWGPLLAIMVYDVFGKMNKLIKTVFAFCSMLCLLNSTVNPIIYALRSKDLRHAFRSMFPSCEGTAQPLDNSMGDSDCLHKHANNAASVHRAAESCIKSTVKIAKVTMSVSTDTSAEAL

Homo sapiens = species: Homo sapiens; assay: Selectivity ratio of Ki for human CB2 receptor to Ki for human CB1 receptor
[3] = Lipophilicity, log D of the compound at pH 7.4; settings: buffer
physchem [4] = settings: phosphate buffer, pH 7.4
Description: Thermodynamic solubility of the compound in phosphate buffer at pH 7.4 after 24 hrs by HPLC analysis

physchem [5] = settings: phosphate buffer, pH 4
Description: Thermodynamic solubility of the compound in phosphate buffer at pH 4 after 24 hrs by HPLC analysis

Cannabinoid receptor 1 [6] = biological target: T2, Cannabinoid receptor 1; assay: Agonist activity at human CB1 receptor expressed in CHO cells assessed as stimulation of [3H]-arachidonic acid release; type: functional, cell-based
Cannabinoid receptor 2 [7] = biological target: T1, Cannabinoid receptor 2; assay: Agonist activity at human CB2 receptor expressed in CHO cells assessed as inhibition of forskolin-stimulated cAMP accumulation after 20 mins; type: functional, cell-based
[8] = Dissociation constant, pKa of the compound by fast UV-metric method; type: physicochemical
[9] = biological target: Cannabinoid receptor 1 (Rattus norvegicus) (UniProt P20272); assay: (§1) Activation of CB1 receptor in Wistar rat prelimbic prefrontal cortex assessed as reduction of field excitatory postsynaptic potential amplitude after 20 mins; type: tissue-based
Sequence of Cannabinoid receptor 1 (Rattus norvegicus) (P20272 whole entry): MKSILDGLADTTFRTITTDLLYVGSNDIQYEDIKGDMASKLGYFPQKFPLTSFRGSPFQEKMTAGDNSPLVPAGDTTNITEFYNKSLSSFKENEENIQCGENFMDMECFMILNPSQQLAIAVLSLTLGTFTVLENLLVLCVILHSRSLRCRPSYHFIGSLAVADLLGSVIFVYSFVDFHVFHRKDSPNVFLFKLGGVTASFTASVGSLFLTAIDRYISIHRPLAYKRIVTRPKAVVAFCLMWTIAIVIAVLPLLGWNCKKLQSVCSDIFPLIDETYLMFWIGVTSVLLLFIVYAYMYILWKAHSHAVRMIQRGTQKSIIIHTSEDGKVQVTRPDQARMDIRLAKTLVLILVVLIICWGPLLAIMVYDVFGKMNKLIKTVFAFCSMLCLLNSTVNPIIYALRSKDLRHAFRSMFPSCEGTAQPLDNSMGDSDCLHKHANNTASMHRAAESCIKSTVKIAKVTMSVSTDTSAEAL

Cannabinoid receptor 1 [10] = biological target: Cannabinoid receptor 1 (Rattus norvegicus, UniProt P20272); assay: as §1; type: tissue-based
Sequence of Cannabinoid receptor 1 (Rattus norvegicus, UniProt P20272) (P20272 whole entry): as above

[11] = biological target: Cannabinoid receptor 1 (Rattus norvegicus) (UniProt P20272); assay: Activation of CB1 receptor in Wistar rat prelimbic prefrontal cortex assessed as reduction of field excitatory postsynaptic potential amplitude after 20 mins relative to baseline; type: tissue-based
[12] = Apparent permeability from apical to basolateral side in human Caco2 cells by LC-MS/MS analysis; settings: Caco-2
physchem [13] = settings: 0.01 M phosphate buffered saline, pH 7.4
physchem [14] = settings: 0.01 M phosphate buffered saline, pH 7.4; remark: listed apart in the source

SMILES | Ki (Cannabinoid receptor 2 [1]) | Ki (Cannabinoid receptor 1 [2]) | Ratio Ki (Homo sapiens) | logD [3] | solubility thermodynamic at 24 h (physchem [4]) | solubility thermodynamic at 24 h (physchem [5]) | EC50 (Cannabinoid receptor 1 [6]) | EC50 (Cannabinoid receptor 2 [7]) | pKa [8] | inhibition [9] | IC50 (Cannabinoid receptor 1 [10]) | Emax [11] | Papp A→B [12] | solubility kinetic (physchem [13]) | solubility kinetic (physchem [14])
CCCCCn1cc(C(=O)c2cccc(-c3ccccc3)c2)c2ccccc21 | 0.0631 µM | 0.00794 µM | 9 | > 5 | < 1 µM | – | – | – | – | – | – | – | – | – | –
CCCCCn1cc(C(=O)c2ccc(-c3ccccc3)cc2)c2ccccc21 | 0.0398 µM | 0.0316 µM | 1 | > 5 | < 1 µM | < 1 µM | – | – | – | – | – | – | – | – | –
CCCCCn1cc(C(=O)c2cccc3ccccc23)c2cccnc21 | 0.0501 µM | 0.0126 µM | 4 | > 5 | 1 µM (≈ 0.342 µg/mL) | 1 µM (≈ 0.342 µg/mL) | 0.0316 µM | 0.158 µM | < 2 | Dose-dependent effect | 0.52 µM | 67.1% | – | – | –
COCCn1cc(C(=O)c2cccc(-c3ccccc3)c2)c2ccccc21 | > 1 µM | 0.251 µM | > 4 | 4.4 | < 1 µM | < 1 µM | – | – | – | – | – | – | – | – | –
CCCCCn1cc(C(=O)c2cccc3ccccc23)c2ccccc21 | 0.00631 µM | 0.002 µM | 3 | > 5 | < 1 µM | < 1 µM | 0.00501 µM | 0.00501 µM | – | Dose-dependent effect | 0.28 µM | 73.5% | – | – | –
COCCn1cc(C(=O)Nc2cccc3ccccc23)c2ccccc21 | 0.251 µM | > 1 µM | < 0.3 | 2.94 | 3 µM (≈ 1.03 µg/mL) | 3 µM (≈ 1.03 µg/mL) | – | 0.00631 µM | – | – | – | – | 27 ×10⁻⁶ cm/s | 30 µM (≈ 10.3 µg/mL) | 100 µM (≈ 34.4 µg/mL)
Cc1c(C(=O)c2cccc3ccccc23)c2cccc3c2n1[C@H](CN1CCOCC1)CO3 [WIN-552122] | – | – | – | 4.08 | 5 µM (≈ 2.13 µg/mL) | 8 µM (≈ 3.41 µg/mL) | – | – | 4.14 | – | – | – | 12.1 ×10⁻⁶ cm/s | 3 µM (≈ 1.28 µg/mL) | 20 µM (≈ 8.53 µg/mL)
CCCCCCC(C)(C)c1cc(O)c2c(c1)OC(C)(C)C1CCC(=O)CC21 (stereo not given) [NABILONE] | 0.00631 µM | 0.00398 µM | 1.7 | > 5 | < 1 µM | < 1 µM | – | 0.0158 µM | 10.6 | – | – | – | – | – | –
CCCCCn1cc(C(=O)Nc2ccc3ccccc3c2)c2ccccc21 | 0.631 µM | 0.0631 µM | 10 | > 5 | < 1 µM | < 1 µM | > 1 µM | 5.01 µM | – | – | – | – | – | – | –
COCCn1cc(C(=O)Nc2ccc3ccccc3c2)c2ccccc21 | 0.316 µM | > 1 µM | < 0.3 | 3.69 | < 1 µM | < 1 µM | – | – | – | – | – | – | – | – | –
COCCn1cc(C(=O)c2ccccc2-c2ccccc2)c2ccccc21 | 0.631 µM | 0.251 µM | 3 | 3.31 | < 1 µM | < 1 µM | – | – | – | – | – | – | – | – | –
CCCCCn1cc(C(=O)c2cccc3ccccc23)c2cnccc21 | 0.0501 µM | 0.316 µM | – | – | – | – | 0.0501 µM | – | 6.49 | – | – | – | – | – | –
COCCn1cc(C(=O)c2cccc3ccccc23)c2ccncc21 | 0.0251 µM | > 1 µM | < 0.03 | 3.13 | – | – | > 1 µM | – | 5.8 | – | – | – | – | – | –
CCCCCn1cc(C(=O)Nc2cccc3ccccc23)c2ccccc21 | 0.1 µM | 0.00126 µM | 79 | > 5 | < 1 µM | < 1 µM | 0.01 µM | 0.00794 µM | – | Dose-dependent effect | 0.45 µM | 78.1% | – | – | –
CCCCCCC(C)(C)c1ccc([C@@H]2C[C@H](O)CC[C@H]2CCCO)c(O)c1 [CP-55940] | – | – | – | > 5 | 2 µM (≈ 0.753 µg/mL) | 2 µM (≈ 0.753 µg/mL) | – | – | 11.2 | – | – | – | 5.7 ×10⁻⁶ cm/s | 30 µM (≈ 11.3 µg/mL) | 100 µM (≈ 37.7 µg/mL)
CCCCCn1cc(C(=O)c2cccc3ccccc23)c2ccncc21 | 0.501 µM | 0.158 µM | 3 | 4.72 | 4 µM (≈ 1.37 µg/mL) | – | 0.1 µM | – | 5.83 | – | – | – | 13 ×10⁻⁶ cm/s | 3 µM (≈ 1.03 µg/mL) | 10 µM (≈ 3.42 µg/mL)
COCCn1cc(C(=O)c2ccc(-c3ccccc3)cc2)c2ccccc21 | > 1 µM | > 1 µM | – | 4.5 | < 1 µM | < 1 µM | – | – | – | – | – | – | – | – | –
CCCCCn1cc(C(=O)c2ccccc2-c2ccccc2)c2ccccc21 | 0.00794 µM | 0.00631 µM | 1 | > 5 | < 1 µM | – | – | – | – | – | – | – | – | – | –
COCCn1cc(C(=O)c2cccc3ccccc23)c2cccnc21 | 0.2 µM | 0.501 µM | 0.4 | 3.57 | 3 µM (≈ 0.991 µg/mL) | 3 µM (≈ 0.991 µg/mL) | > 1 µM | > 1 µM | < 2 | – | – | – | 26 ×10⁻⁶ cm/s | 10 µM (≈ 3.3 µg/mL) | 65 µM (≈ 21.5 µg/mL)
